Test results: ChEMBL document CHEMBL3763037 (J Med Chem, 2016)

Columns and labels:
[1] = target: Poly [ADP-ribose] polymerase 1 (Homo sapiens, UniProt P09874); assay: Inhibition of human PARP1 using [3H]NAD as substrate after 1 min by microplate scintillation counting analysis
[2] = Cytotoxicity against BRCA2-deficient human Capan1 cells; format: functional, cell-based, CAPAN-1; settings: Homo sapiens, CAPAN-1
LoVo = assay: cells; settings: Homo sapiens, 120 h
PARP 1, 2 and 3 = PARP 1, 2 and 3 (Homo sapiens, UniProt P09874+Q9Y6F1+Q9UGN5); assay: Inhibition of PARP in human LoVo cells assessed as inhibition of poly(ADP)-ribose polymerization for 30 mins by fluorescence assay; format: cell-based
[3] = Half life in rat liver microsomes; format: ADME

Poly [ADP-ribose] polymerase 1, sequence (P09874 whole entry): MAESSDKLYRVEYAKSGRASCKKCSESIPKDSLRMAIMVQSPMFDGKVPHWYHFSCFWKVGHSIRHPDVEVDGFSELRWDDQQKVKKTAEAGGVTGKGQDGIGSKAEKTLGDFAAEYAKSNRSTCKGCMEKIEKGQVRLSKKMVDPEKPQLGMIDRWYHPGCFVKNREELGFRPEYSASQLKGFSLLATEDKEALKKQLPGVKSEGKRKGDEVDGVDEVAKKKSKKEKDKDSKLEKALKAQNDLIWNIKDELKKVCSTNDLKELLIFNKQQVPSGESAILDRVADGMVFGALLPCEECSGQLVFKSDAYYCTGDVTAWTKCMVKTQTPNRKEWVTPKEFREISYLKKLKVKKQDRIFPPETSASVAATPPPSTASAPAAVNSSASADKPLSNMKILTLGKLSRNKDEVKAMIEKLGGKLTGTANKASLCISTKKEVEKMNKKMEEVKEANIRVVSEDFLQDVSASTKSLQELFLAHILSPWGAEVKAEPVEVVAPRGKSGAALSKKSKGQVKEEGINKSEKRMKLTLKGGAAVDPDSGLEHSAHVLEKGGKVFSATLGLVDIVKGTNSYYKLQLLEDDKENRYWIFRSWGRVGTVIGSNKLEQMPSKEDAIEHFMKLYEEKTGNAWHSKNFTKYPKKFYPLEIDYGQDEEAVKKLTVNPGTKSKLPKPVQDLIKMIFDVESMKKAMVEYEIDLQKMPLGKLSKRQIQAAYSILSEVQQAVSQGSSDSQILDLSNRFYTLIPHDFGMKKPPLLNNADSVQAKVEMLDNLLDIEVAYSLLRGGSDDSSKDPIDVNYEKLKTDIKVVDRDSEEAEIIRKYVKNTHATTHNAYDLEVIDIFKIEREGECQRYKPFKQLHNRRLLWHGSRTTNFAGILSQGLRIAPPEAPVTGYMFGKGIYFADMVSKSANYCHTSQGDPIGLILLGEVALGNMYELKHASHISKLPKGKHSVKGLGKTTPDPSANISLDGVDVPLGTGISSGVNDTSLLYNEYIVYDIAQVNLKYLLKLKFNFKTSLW

IC50 [1] | GI50 (LoVo) | EC50 (PARP 1, 2 and 3) | half-life [3] | SMILES | EC50 [2]
7.62 nM |  |  |  | Cn1ncnc1C1c2n[nH]c(=O)c3cc(F)cc(c23)NC1c1cncnc1 (centres undefined) | 
3.9 nM |  |  |  | Cn1ncnc1C1c2n[nH]c(=O)c3cc(F)cc(c23)NC1c1ccc(C#N)cc1 (centres undefined) | 88 nM
5.6 nM | 3570 nM | 11.8 nM |  | O=c1[nH]nc2c3c(cccc13)N[C@@H](c1ccc(CN3CCC3)cc1)[C@@H]2c1ccc(F)cc1 | 2250 nM
1.84 nM | > 400000 nM | 9.33 nM |  | Cn1nccc1C1c2n[nH]c(=O)c3cc(F)cc(c23)NC1c1ccc(F)cc1 (centres undefined) | 956 nM
17.7 nM |  |  |  | O=c1[nH]nc2c3c(cccc13)NC(c1cccnc1)C2c1cccnc1 (centres undefined) | 
22.4 nM | > 400000 nM |  |  | O=c1[nH]nc2c3c(cccc13)NC(c1ccncc1)C2c1ccncc1 (centres undefined) | 
105 nM |  |  |  | O=c1[nH]nc2c3c(cccc13)NC(c1cccnc1)C2C1CCCNC1 (centres undefined) | 
2.76 nM | > 400000 nM |  |  | Cn1cnnc1C1c2n[nH]c(=O)c3cccc(c23)NC1c1ccccc1 (centres undefined) | 4340 nM
9.45 nM | > 400000 nM |  |  | Cn1ccnc1C1Nc2cccc3c(=O)[nH]nc(c23)C1c1ccccc1 (centres undefined) | 
6.29 nM | 94000 nM | 6.7 nM |  | CN(C)Cc1ccc(C2Nc3cccc4c(=O)[nH]nc(c34)C2c2ccc(C(F)(F)F)cc2)cc1 (centres undefined) | 818 nM
68.9 nM | 3260 nM | 250 nM |  | Cn1ncnc1[C@@H]1c2n[nH]c(=O)c3cccc(c23)N[C@H]1c1ccc(F)cc1 | 1880 nM
1.87 nM | 35700 nM | 17 nM |  | Cn1ccnc1C1c2n[nH]c(=O)c3cc(F)cc(c23)NC1c1ccc(F)cc1 (centres undefined) | 56 nM
108 nM |  |  |  | O=c1[nH]nc2c3c(cccc13)NC(c1ccccn1)C2c1ccccn1 (centres undefined) | 
6.1 nM | 324000 nM | 58.4 nM |  | O=c1[nH]nc2c3c(cccc13)NC(c1ccccc1)C2c1ccccc1 (centres undefined) | 2970 nM
 |  |  |  | NC(=O)c1cccc2cn(-c3ccc([C@@H]4CCCNC4)cc3)nc12 [NIRAPARIB] | 650 nM
7.35 nM | 106000 nM | 24.4 nM |  | O=c1[nH]nc2c3c(cccc13)NC(c1ccc(F)cc1)C2c1nccs1 (centres undefined) | 
3.65 nM | 204000 nM |  | 11 min | CN(C)Cc1cccc(C2c3n[nH]c(=O)c4cccc(c34)NC2c2ccccc2)c1 (centres undefined) | 
136 nM | > 10000 nM | 285 nM |  | Cn1ccnc1[C@@H]1c2n[nH]c(=O)c3cccc(c23)N[C@H]1c1ccc(F)cc1 | 6310 nM
 | 1810 nM |  |  | Cn1ncnc1[C@@H]1c2n[nH]c(=O)c3cc(F)cc(c23)N[C@H]1c1ccc(F)cc1 | 1140 nM
6.18 nM | 111000 nM | 121 nM |  | Cn1ccnc1C1c2n[nH]c(=O)c3cc(Cl)cc(c23)NC1c1ccccc1 (centres undefined) | 785 nM
5.85 nM | 112000 nM |  | 6 min | CN(C)Cc1ccc(C2c3n[nH]c(=O)c4cccc(c34)NC2c2ccccc2)cc1 (centres undefined) | 
4140 nM |  |  |  | CC(C)C1c2n[nH]c(=O)c3cccc(c23)NC1c1ccccc1 (centres undefined) | 
9.59 nM | 123000 nM | 15.2 nM |  | CC(C)c1ccc(C2c3n[nH]c(=O)c4cccc(c34)NC2c2ccc(CN(C)C)cc2)cc1 (centres undefined) | 
2.88 nM |  |  |  | Cn1nccc1C1Nc2cc(F)cc3c(=O)[nH]nc(c23)C1c1ncnn1C (centres undefined) | 1920 nM
24.5 nM |  |  |  | Cn1ccnc1C1Nc2cccc3c(=O)[nH]nc(c23)C1c1nccn1C (centres undefined) | 
22.4 nM | 104 nM | 164 nM |  | Cn1ccnc1[C@@H]1c2n[nH]c(=O)c3cc(F)cc(c23)N[C@H]1c1ccc(F)cc1 | 124 nM
5.27 nM | 192000 nM | 27.2 nM |  | Cn1ccnc1C1c2n[nH]c(=O)c3cccc(c23)NC1c1ccc(C(F)(F)F)cc1 (centres undefined) | 1100 nM
2.63 nM | 128000 nM |  |  | CN(C)Cc1cccc(C2Nc3cccc4c(=O)[nH]nc(c34)C2c2ccccc2)c1 (centres undefined) | 
